Like-named read-outs stand apart in the source and are kept apart here.
Key:
5-HT1A receptor [1] = biological target: T1, 5-HT1A receptor (Rattus norvegicus, UniProt P19327); experiment: G-protein enhancing (agonist) effect at the 5-HT1A receptor; assay type: biochemical
T1 construct: Hippocampal homogenates (15 μg/mL) were added to each tube as the 5-HT1A receptor source; from tissue; host or cells: rat hippocampus (male Sprague-Dawley), membrane homogenate
T1 sequence (P19327 1-422): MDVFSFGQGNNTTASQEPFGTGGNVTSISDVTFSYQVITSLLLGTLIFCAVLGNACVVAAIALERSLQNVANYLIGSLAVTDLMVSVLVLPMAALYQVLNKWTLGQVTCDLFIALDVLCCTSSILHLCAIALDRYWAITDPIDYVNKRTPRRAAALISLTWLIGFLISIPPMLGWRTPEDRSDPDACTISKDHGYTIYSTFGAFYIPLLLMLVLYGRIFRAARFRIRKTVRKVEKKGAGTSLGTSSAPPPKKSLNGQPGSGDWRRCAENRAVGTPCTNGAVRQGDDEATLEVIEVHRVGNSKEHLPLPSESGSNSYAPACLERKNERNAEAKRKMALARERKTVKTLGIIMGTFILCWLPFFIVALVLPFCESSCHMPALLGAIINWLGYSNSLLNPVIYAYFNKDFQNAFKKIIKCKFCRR

5-HT1A receptor [2] = biological target: T1, 5-HT1A receptor; experiment: Antagonist activity for the 5-HT1A receptor, [35S]GTPγS assay in hippocampal homogenates; assay type: biochemical; settings: 8-OH-DPAT 1.4 × 10^−7 M, mean ± SEM; for EC50: antagonistic activity
Method: Male Sprague–Dawley rats were decapitated, their brains removed, and placed on ice. Hippocampi were dissected and homogenized with a glass homogenizer in 30 vol. ice-cold TED buffer (50 mM Tris-HCl, 1 mM EDTA, 1mM dithiotheritol, pH 7.4). Next, the homogenate was centrifuged at 21,000× g for 30 min at 4 °C. […] The suspension was centrifuged again at 21,000× g for 30 min at 4 °C. The pellet was resuspended in 30 vol. TED buffer (pH 7.4) and the centrifugation step was repeated. The final pellet was suspended in 10 vol 50 mM Tris-HCl (pH 7.4) and stored at −80 °C until use.
Serial dilutions of the compounds tested (10^−10–10^−5 M) were incubated in triplicate with 0.8 nM [^35S]GTPγS in assay buffer (50 mM Tris-HCl, pH = 7.4, 1 mM EGTA, 3 mM MgCl2, 100 mM NaCl, 30 µM GDP) and 8-OH-DPAT (final concentration 1.4 × 10^−7 M) in the final assay volume of 250 µL. Hippocampal homogenates (15 μg/mL) were added to each tube as the 5-HT1A receptor source. […] Non-specific binding was determined with 10 µM of unlabeled GTPγS. […] Next, 96-well Unifilter® Plates (Perkin Elmer, Waltham, MA, USA) were presoaked for 1 h with 50 mM Tris-HCl (pH = 7.4) before harvesting. The reaction was terminated by vacuum filtration onto filter plates with the FilterMate Harvester® (Perkin Elmer, Waltham, MA, USA). The samples were then rapidly washed with 2 mL of 50 mM Tris-HCl (pH = 7.4) buffer. Filter plates were dried for 2 h at 50 °C. After drying, 45 µL of EcoScint-20 scintillant (Perkin Elmer) was added to every well. Radioactivity was counted in a Trilux MicroBeta^2 counter (Perkin Elmer). Data were analyzed with GraphPad Prism 5.0 software (GraphPad Software, San Diego, CA, USA, www.graphpad.com). Curves were fitted with a one-site non-linear regression model. Efficacy (Emax) and half maximal inhibitory concentration (IC50) were calculated from the Cheng–Prusoff equation and expressed as means ± SEM.

5-HT2A receptor = biological target: T2, 5-HT2A receptor (Rattus norvegicus, UniProt P14842); experiment: 5-HT2A competition binding assay, [3H]ketanserin, frontal cortex homogenates; settings: [3H]ketanserin 1 nM
T2 construct: from tissue; host or cells: rat frontal cortex (male SD), membrane homogenate
T2 sequence (P14842 whole entry): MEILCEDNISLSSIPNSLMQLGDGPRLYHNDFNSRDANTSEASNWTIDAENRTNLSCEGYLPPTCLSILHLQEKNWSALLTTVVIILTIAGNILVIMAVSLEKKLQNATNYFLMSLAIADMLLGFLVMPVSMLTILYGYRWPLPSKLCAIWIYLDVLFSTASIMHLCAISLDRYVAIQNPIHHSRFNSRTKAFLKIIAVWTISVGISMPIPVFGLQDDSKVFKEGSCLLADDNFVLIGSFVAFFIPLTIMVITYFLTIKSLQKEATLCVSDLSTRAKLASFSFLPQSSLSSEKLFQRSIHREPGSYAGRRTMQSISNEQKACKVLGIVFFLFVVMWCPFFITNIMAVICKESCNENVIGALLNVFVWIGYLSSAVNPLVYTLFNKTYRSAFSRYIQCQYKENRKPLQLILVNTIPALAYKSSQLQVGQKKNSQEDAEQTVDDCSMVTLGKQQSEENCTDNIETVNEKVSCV
Method: Male SD rats were decapitated and their brains removed and placed on ice. Frontal cortices were homogenized with a glass homogenizer in 30 vol ice-cold homogenization buffer (50 mM Tris-HCl. 1 mM EDTA. 5 mM MgCl2. pH 7.4). Next, the homogenate was centrifuged at 20,000× g for 15 min at 4 °C. […] The suspension was again centrifuged at 20,000× g for 15 min at 4 °C. The pellet was resuspended in 10 vol. 50 mM Tris-HCl (pH 7.4) and the centrifugation step was repeated. The final pellet was suspended in 10 vol 50 mM Tris-HCl (pH 7.4) and stored at −80 °C.
Non-specific binding was determined in the presence of 10 μM mianserin. After incubation, the reaction mixture was deposited onto UniFilter-96 GF/B plates with the aid of a FilterMate-96 Harvester. Filter plates were presoaked beforehand with 0.4% PEI for 1 h. Next, each filter well was washed with 1.75 mL of 50 mM Tris-HCl (pH 7.4) and left to dry on a heating block set to 50 °C for 2 h. Then 45 µL of Microscint-20 scintillation fluid was added to each filter well and left to equilibrate overnight. Filter-bound radioactivity was counted in a MicroBeta^2 Microplate Counter. Binding curves were fitted with one site non-linear regression. Affinity was presented as the inhibitory constant (pKi ± SEM and Ki ± SEM) from two or three separate experiments.

[3] = read-out: Ki (nM ± SEM) (converted)
[4] = read-out: pKi (M ± SEM) (converted)

For `Cc1cc(OCCN2CCN(c3cccc(F)c3)CC2)c2c(C)cc(=O)oc2c1` [Compound 2e, 5-(2-(4-(3-fluorophenyl)piperazin-1-yl)ethoxy)-4,7-dimethyl-2H-chromen-2-one], the Emax (5-HT1A receptor [1]; G-protein enhancing effect, 5-HT1A) was 118 ± 1.48%, the EC50 (5-HT1A receptor [1]; G-protein enhancing effect, 5-HT1A, read-out: EC50 (nM ± SEM)) was 179 ± 39.3 nM and the “functional character at the 5-HT1A receptor” value (5-HT1A receptor [1]; in words) was “weak partial agonists”. It also gave a melting point of 120 to 122 °C.

Work on `COc1ccccc1N1CCN(CCCCCOc2ccc3c(C)cc(=O)oc3c2C(C)=O)CC1` [Compound 5a, 8-acetyl-7-(5-[4-(2-methoxyphenyl)piperazin-1-yl]penthoxy)-4-methylchromen-2-one] yielded an IC50 (5-HT1A receptor [2]) of 0.0316 µM, an EC50 (5-HT1A receptor [2]) of 30.5 ± 2.56 nM and a Ki (5-HT2A receptor; [3]) of 343 ± 86 nM. It also gave a melting point of 126 to 128 °C.

For `CC(=O)c1c(OCCCCCN2CCN(c3ccccc3F)CC2)ccc2c(C)cc(=O)oc12` [Compound 5b, 8-acetyl-7-(5-[4-(2-fluorophenyl)piperazin-1-yl]penthoxy)-4-methylchromen-2-one], the IC50 (5-HT1A receptor [2]) was 0.0794 µM, the EC50 (5-HT1A receptor [2]) was 82 ± 13.4 nM and the Ki (5-HT2A receptor; [3]) was 122 ± 43 nM. The melting point was 95 to 97 °C.

`CC(=O)c1c(OCCCCCN2CCN(c3cc(C)ccc3C)CC2)ccc2c(C)cc(=O)oc12` [Compound 5d, 8-acetyl-7-(5-[4-(2,5-dimethylphenyl)piperazin-1-yl]penthoxy)-4-methylchromen-2-one] showed an IC50 (5-HT1A receptor [2]) of 12.6 µM, an EC50 (5-HT1A receptor [2]) of 12900 nM and a Ki (5-HT2A receptor; [3]) of 1500 ± 279 nM. It also gave a melting point of 92 to 94 °C.

`CC(=O)c1c(OCCCCCN2CCN(c3cccc(F)c3)CC2)ccc2c(C)cc(=O)oc12` [Compound 5e, 8-acetyl-7-(5-[4-(3-fluorophenyl)piperazin-1-yl]penthoxy)-4-methylchromen-2-one] showed an IC50 (5-HT1A receptor [2]) of 31.6 µM, an EC50 (5-HT1A receptor [2]) of 33900 nM and a Ki (5-HT2A receptor; [3]) of 2110 ± 420 nM. The melting point was 117 to 119 °C.

With `CC(=O)c1c(OCCCCCN2CCN(c3ccccc3Br)CC2)ccc2c(C)cc(=O)oc12` [Compound 5f, 8-acetyl-7-(5-[4-(2-bromophenyl)piperazin-1-yl]penthoxy)-4-methylchromen-2-one] the IC50 (5-HT1A receptor [2]) was 31.6 µM, the EC50 (5-HT1A receptor [2]) was 27400 nM and the Ki (5-HT2A receptor; [3]) was 108 ± 24 nM. The Ki (5-HT2A receptor; [4]) was 110 nM and the melting point was 102 to 103 °C.

Compound `CC(=O)c1c(OCCCCCN2CCN(c3cccc(Br)c3)CC2)ccc2c(C)cc(=O)oc12` [Compound 5g, 8-acetyl-7-(5-[4-(3-bromohenyl)piperazin-1-yl]penthoxy)-4-methylchromen-2-one] has an IC50 (5-HT1A receptor [2]) of 25.1 µM, an EC50 (5-HT1A receptor [2]) of 21500 nM and a Ki (5-HT2A receptor; [3]) of 81 ± 19 nM. For the same compound, the melting point was 119 to 121 °C.

`CC(=O)c1c(OCCCCCN2CCN(c3cc(C)cc(C)c3)CC2)ccc2c(C)cc(=O)oc12` [Compound 5h, 8-acetyl-7-(5-[4-(3,5-dimethylphenyl)piperazin-1-yl]penthoxy)-4-methylchromen-2-one] gave an IC50 (5-HT1A receptor [2]) of 31.6 µM, an EC50 (5-HT1A receptor [2]) of 32900 nM and a Ki (5-HT2A receptor; [3]) of 291 ± 57 nM. For the same compound, the melting point was 113 to 115 °C.

With `CC(=O)c1c(OCCCCCN2CCN(c3cccc(Cl)c3Cl)CC2)ccc2c(C)cc(=O)oc12` [Compound 5i, 8-acetyl-7-(5-[4-(2,3-dichlorophenyl)piperazin-1-yl]penthoxy)-4-methylchromen-2-one] the IC50 (5-HT1A receptor [2]) was 63.1 µM, the EC50 (5-HT1A receptor [2]) was 55900 nM and the Ki (5-HT2A receptor; [3]) was 51 ± 8.3 nM. For the same compound, the Ki (5-HT2A receptor; [4]) was 63.1 nM and the melting point was 137 to 139 °C.

With `CC(=O)c1c(OCCCCCN2CCN(c3ccccc3C#N)CC2)ccc2c(C)cc(=O)oc12` [Compound 5j, 8-acetyl-7-(5-[4-(2-cyanophenyl)piperazin-1-yl]penthoxy)-4-methylchromen-2-one] the IC50 (5-HT1A receptor [2]) was 15.8 µM, the EC50 (5-HT1A receptor [2]) was 13900 nM and the Ki (5-HT2A receptor; [3]) was 2550 ± 765 nM. The melting point was 59 to 61 °C.

`COc1ccccc1N1CCN(CCOc2ccc3c(C)cc(=O)oc3c2C(C)=O)CC1` [Compound 6a, 8-acetyl-7-(2-[4-(2-methoxyphenyl)piperazin-1-yl]ethoxy)-4-methylchromen-2-one] gave an IC50 (5-HT1A receptor [2]) of 3.16 µM, an EC50 (5-HT1A receptor [2]) of 2740 ± 626 nM and a Ki (5-HT2A receptor; [3]) of 752 ± 171 nM. The melting point was 157 to 159 °C.

With `CC(=O)c1c(OCCN2CCN(c3ccccc3F)CC2)ccc2c(C)cc(=O)oc12` [Compound 6b, 8-acetyl-7-(2-[4-(2-fluorophenyl)piperazin-1-yl]ethoxy)-4-methylchromen-2-one] the IC50 (5-HT1A receptor [2]) was 50.1 µM, the EC50 (5-HT1A receptor [2]) was 45300 nM and the Ki (5-HT2A receptor; [3]) was 1510 ± 344 nM. The melting point was 137 to 139 °C.

Compound `COc1cccc(N2CCN(CCOc3ccc4c(C)cc(=O)oc4c3C(C)=O)CC2)c1` [Compound 6c, 8-acetyl-7-(2-[4-(3-methoxyphenyl)piperazin-1-yl]ethoxy)-4-methylchromen-2-one] has an IC50 (5-HT1A receptor [2]) of 50.1 µM, an EC50 (5-HT1A receptor [2]) of 47200 nM and a Ki (5-HT2A receptor; [3]) of 920 ± 160 nM. It also gave a Ki (5-HT2A receptor; [4]) of 933 nM and a melting point of 122 to 124 °C.

For `CC(=O)c1c(OCCN2CCN(c3cc(C)ccc3C)CC2)ccc2c(C)cc(=O)oc12` [Compound 6d, 8-acetyl-7-(2-[4-(2,5-dimethylphenyl)piperazin-1-yl]ethoxy)-4-methylchromen-2-one], the IC50 (5-HT1A receptor [2]) was 63.1 µM, the EC50 (5-HT1A receptor [2]) was 59900 nM and the Ki (5-HT2A receptor; [3]) was 2050 ± 405 nM. It also gave a melting point of 96 to 98 °C.

For `CC(=O)c1c(OCCN2CCN(c3cccc(F)c3)CC2)ccc2c(C)cc(=O)oc12` [Compound 6e, 8-acetyl-7-(2-[4-(3-fluorophenyl)piperazin-1-yl]ethoxy)-4-methylchromen-2-one], the IC50 (5-HT1A receptor [2]) was 100 µM, the EC50 (5-HT1A receptor [2]) was 98900 nM and the Ki (5-HT2A receptor; [3]) was 1670 ± 274 nM. For the same compound, the melting point was 86 to 88 °C.

For `CC(=O)c1c(OCCN2CCN(c3ccccc3Br)CC2)ccc2c(C)cc(=O)oc12` [Compound 6f, 8-acetyl-7-(2-[4-(2-bromophenyl)piperazin-1-yl]ethoxy)-4-methylchromen-2-one], the IC50 (5-HT1A receptor [2]) was 50.1 µM, the EC50 (5-HT1A receptor [2]) was 46800 nM and the Ki (5-HT2A receptor; [3]) was 1500 ± 268 nM. For the same compound, the melting point was 145 to 147 °C.

For `CC(=O)c1c(OCCN2CCN(c3cc(C)cc(C)c3)CC2)ccc2c(C)cc(=O)oc12` [Compound 6h, 8-acetyl-7-(2-[4-(3,5-dimethylphenyl)piperazin-1-yl]ethoxy)-4-methylchromen-2-one], the IC50 (5-HT1A receptor [2]) was 50.1 µM, the EC50 (5-HT1A receptor [2]) was 47800 nM and the Ki (5-HT2A receptor; [3]) was 479 ± 96 nM. The melting point was 120 to 121 °C.

For `CC(=O)c1c(OCCN2CCN(c3cccc(Cl)c3Cl)CC2)ccc2c(C)cc(=O)oc12` [Compound 6i, 8-acetyl-7-(2-[4-(2,3-dichlorophenyl)piperazin-1-yl]ethoxy)-4-methylchromen-2-one], the IC50 (5-HT1A receptor [2]) was 200 µM, the EC50 (5-HT1A receptor [2]) was 204000 nM and the Ki (5-HT2A receptor; [3]) was 755 ± 178 nM. The melting point was 159 to 161 °C.

Compound `CC(=O)c1c(OCCN2CCN(c3ccccc3C#N)CC2)ccc2c(C)cc(=O)oc12` [Compound 6j, 8-acetyl-7-(2-[4-(2-cyanophenyl)piperazin-1-yl]ethoxy)-4-methylchromen-2-one] has an IC50 (5-HT1A receptor [2]) of 7.94 µM, an EC50 (5-HT1A receptor [2]) of 7800 ± 1880 nM and a Ki (5-HT2A receptor; [3]) of 496 ± 121 nM. It also gave a melting point of 155 to 157 °C.
